Reference: patent US5264589A, “Merocyanine protein error indicators” (Miles Inc., priority 1991, dated 1993)

Experiments:
human serum albumin = human serum albumin (Homo sapiens, UniProt P02768); test: Liquid assay for human serum albumin (increase in absorbance); conditions: albumin 100 mg/dl, 200-250 mM Na+ or K+ citrate buffer
Description: The utility of the merocyanine protein error indicator compounds of the present invention in a liquid assay for the determination of protein levels in a liquid test sample is illustrated in Table 7 below. […] The solution was then treated with sufficient human serum albumin to make the albumin concentration 100 mg/dl and the absorbance was measured again. The reported increase in absorbance (Δ abs) is proportional to the amount of albumin present, and is indicative of the relative sensitivity of the dye for measuring protein.

[1] = pKa of the indicator compound; format: physicochemical
[2] = biological target: T1, human serum albumin (HSA) (Homo sapiens, UniProt P02768); test: Dose response of reagent strips including SPDIB (K/S reflectance, Clinitek 200); conditions: analytical test strips including 0.3 mM SPDIB; 50 mM potassium citrate, pH 2.5; K/S at 25 seconds; FIG. 7
T1 construct: purchased Miles, Inc., Elkhart, Ind; (Pentex)
T1 sequence (P02768 25-609): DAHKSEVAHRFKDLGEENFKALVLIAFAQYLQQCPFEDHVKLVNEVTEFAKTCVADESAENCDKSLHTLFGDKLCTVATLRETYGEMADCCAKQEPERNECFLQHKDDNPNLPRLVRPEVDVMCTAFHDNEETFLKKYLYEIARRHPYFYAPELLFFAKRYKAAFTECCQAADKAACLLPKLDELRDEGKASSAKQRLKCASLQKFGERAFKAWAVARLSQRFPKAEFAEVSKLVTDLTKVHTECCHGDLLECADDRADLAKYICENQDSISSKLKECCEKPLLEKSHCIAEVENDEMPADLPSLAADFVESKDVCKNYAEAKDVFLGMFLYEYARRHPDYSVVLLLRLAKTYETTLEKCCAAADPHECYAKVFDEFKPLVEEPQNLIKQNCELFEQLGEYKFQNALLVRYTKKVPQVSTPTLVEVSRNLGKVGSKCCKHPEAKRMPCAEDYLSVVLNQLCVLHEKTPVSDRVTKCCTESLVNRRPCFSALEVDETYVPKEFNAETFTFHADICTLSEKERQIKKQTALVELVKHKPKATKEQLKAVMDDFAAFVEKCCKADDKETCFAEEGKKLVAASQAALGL
Description: A buffered liquid sample (50 mM potassium citrate, pH 2.5) which was shown by immunoassay to be devoid of albumin, was spiked to various clinically significant levels with Pentex® human serum albumin (HSA) (Miles, Inc., Elkhart, Ind.). Using a Clinitek 200® Instrument (Miles, Inc., Elkhart, Ind.) protein measurements were made using analytical test strips including 0.3 mM SPDIB.
Resolution was quantitatively expressed in delta K/S between albumin levels, as shown FIG. 7. K/S are calculated from the formula: [formula] wherein R is the fraction of reflectance from the test device, K is a constant, and S is the light scattering coefficient of the particular reflecting medium. The above equation is a simplified form of the well-known Kubelka-Munk equation (See Gustav Kortum, "Reflectance Spectroscopy," pp. 106-11, Springer Verlas, New York (1969). K/S was determined at 25 seconds.

human serum albumin, sequence (P02768 25-609): as above

Structure (SMILES): CC1(C)C(C=Cc2cc(I)c(O)c(I)c2)=[N+](CCCS(=O)(=O)[O-])c2ccccc21 [Compound D, 1-(ω-sulfopropyl)-2-(4'-hydroxy-3'-5'-diiodostyryl)-3,3-dimethylindoleninium betaine]
- ΔABS (increase in absorbance) (human serum albumin; compound conc. 2.0 × 10^-5 M, assay pH 3.0, λ 541 nm): 0.402
- COMPD. pKa [1]: 3.65
- resolution between protein levels (delta K/S) [2]: significant resolution between protein levels
- response of the strip to different levels of protein [2]: sensitive to a wide range of protein concentrations

Structure (SMILES): CC1(C)C(C=Cc2cc(Br)c(O)c(Br)c2)=[N+](CCCS(=O)(=O)[O-])c2ccccc21 [Compound A, 1-(ω-sulfopropyl)-2-(4'hydroxy-3',5'-dibromostyryl)-3,3-dimethylindoleninium betaine]
- ΔABS (increase in absorbance) (human serum albumin; compound conc. 1.0 × 10^-5 M, assay pH 3.0, λ 522 nm): 0.156
- COMPD. pKa [1]: 3.59

Structure (SMILES): O=S(=O)([O-])CCCC[n+]1c(C=Cc2cc(I)c(O)c(I)c2)sc2ccccc21 [Compound B, 1-(ω-sulfobutyl)-2-(4'-hydroxy-3',5'-diiodostyryl)-benzothiazolium betaine]
- ΔABS (increase in absorbance) (human serum albumin; compound conc. 2.5 × 10^-5 M, assay pH 3.5, λ 506 nm): 0.027
- COMPD. pKa [1]: 4.35

Structure (SMILES): CC1(C)C(C=Cc2cc(I)c(O)c(I)c2)=[N+](CCS(=O)(=O)[O-])c2ccccc21 [Compound C, 1-(ω-sulfoethyl)-2-(4'-hydroxy-3',5'-diiodostyryl)-3,3-dimethylindoleninium betaine]
- ΔABS (increase in absorbance) (human serum albumin; compound conc. 1.5 × 10^-5 M, assay pH 3.0, λ 543 nm): 0.255
- COMPD. pKa [1]: 3.65

Structure (SMILES): CC1(C)C(C=Cc2cc(I)c(O)c(I)c2)=[N+](CCCCS(=O)(=O)[O-])c2ccccc21 [Compound E, 1-(ω-sulfobutyl)-2-(4'-hydroxy-3',5'-diiodostyryl)-3,3-dimethylindoleninium betaine]
- ΔABS (increase in absorbance) (human serum albumin; compound conc. 1.8 × 10^-5 M, assay pH 3.0, λ 535 nm): 0.322
- COMPD. pKa [1]: 3.52
